Assay results published in US20220235043A1, “SUBSTITUTED SULFONAMIDE PYRROLOPYRIDINES AS JAK INHIBITORS” (ACLARIS THERAPEUTICS, INC., priority 2019, published 2022).
pIC50: −log10 of the molar value.

Legend:
JAK1 = target: T1, JAK1 (Homo sapiens, UniProt P23458); assay: JAK1 enzyme activity assay (Thermo Fisher Selectscreen, Z-lyte); assay type: biochemical; conditions: read-out: JAK1 Inhibition IC50
T1 construct: purchased Thermo Fisher Scientific (SelectScreen service)
Method in brief: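 Z-lyte FRET kinase assay with 21.2-91.5 ng JAK1 and 2 μM Tyr 06 peptide in 50 mM HEPES pH 7.0, 10 mM MgCl2, 1 h reaction before development reagent. Background without enzyme, uninhibited signal with 2% DMSO vehicle; 11-point dose-response, IC50 from 4-parameter logistic fit of emission ratio.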

JAK2 = target: T2, JAK2 (Homo sapiens, UniProt O60674); assay: JAK2 enzyme activity assay (Thermo Fisher Selectscreen, Z-lyte); assay type: biochemical; conditions: read-out: JAK2 Inhibition IC50
T2 construct: purchased Thermo Fisher Scientific (SelectScreen service)
Method in brief: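 Z-lyte FRET kinase format: 0.12-0.5 ng JAK2 with 2 μM Tyr 06 peptide in HEPES pH 7.5, 10 mM MgCl2, 1 h reaction, then development reagent. Compounds were run as 11-point dose-response, 2% DMSO vehicle. IC50 came from 4-parameter logistic fit of emission ratio.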

Tyk-2 = target: T3, Tyk-2 (Homo sapiens, UniProt P29597); assay: Tyk-2 enzyme activity assay (Thermo Fisher Selectscreen, Z-lyte); assay type: biochemical; conditions: read-out: Tyk-2 Inhibition IC50
T3 construct: purchased Thermo Fisher Scientific (SelectScreen service)
Method in brief: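 Z-lyte FRET assay with 3.75-15 ng TYK2 and 2 μM Tyr 03 peptide in 50 mM HEPES pH 7.0, 10 mM MgCl2, 1 mM EGTA, 0.01% BRIJ-35. Reaction ran one hour before development reagent was added. Compounds were tested in an 11-point dose-response; IC50 came from a 4-parameter logistic fit of emission ratio, normalised to no-enzyme and 2% DMSO vehicle controls.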

[1] = system: IFNγ stimulated STAT1 phosphorylation on Tyr701 (JAK1/2); assay: JAK1/2 cellular target modulation: IFNγ stimulated phospho-STAT1 in human PBMC; assay type: cell-based; conditions: IFNγ 10 ng/ml, read-out: Infγ-STAT1 IC50
Method in brief: (§1)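 Thawed human PBMC (200,000/well) preincubated with compound 1 h at 37°C, then stimulated with IL-12 1.7 ng/ml for 25 min, IFNγ 10 ng/ml for 10 min, or IL-2 25 ng/ml for 5 min. Lysate phospho-STAT4 Tyr693 and phospho-STAT5 Tyr694 read by MSD; phospho-STAT1 Tyr701 by sandwich ELISA.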

[2] = system: IL-12 stimulated STAT4 phosphorylation on Tyr693 (JAK2/TYK2); assay: JAK2/TYK2 cellular target modulation: IL-12 stimulated phospho-STAT4 in human PBMC; assay type: cell-based; conditions: IL-12 1.7 ng/ml, read-out: IL12-STAT4 IC50
Method in brief: as §1

T3 sequence (P29597 whole entry): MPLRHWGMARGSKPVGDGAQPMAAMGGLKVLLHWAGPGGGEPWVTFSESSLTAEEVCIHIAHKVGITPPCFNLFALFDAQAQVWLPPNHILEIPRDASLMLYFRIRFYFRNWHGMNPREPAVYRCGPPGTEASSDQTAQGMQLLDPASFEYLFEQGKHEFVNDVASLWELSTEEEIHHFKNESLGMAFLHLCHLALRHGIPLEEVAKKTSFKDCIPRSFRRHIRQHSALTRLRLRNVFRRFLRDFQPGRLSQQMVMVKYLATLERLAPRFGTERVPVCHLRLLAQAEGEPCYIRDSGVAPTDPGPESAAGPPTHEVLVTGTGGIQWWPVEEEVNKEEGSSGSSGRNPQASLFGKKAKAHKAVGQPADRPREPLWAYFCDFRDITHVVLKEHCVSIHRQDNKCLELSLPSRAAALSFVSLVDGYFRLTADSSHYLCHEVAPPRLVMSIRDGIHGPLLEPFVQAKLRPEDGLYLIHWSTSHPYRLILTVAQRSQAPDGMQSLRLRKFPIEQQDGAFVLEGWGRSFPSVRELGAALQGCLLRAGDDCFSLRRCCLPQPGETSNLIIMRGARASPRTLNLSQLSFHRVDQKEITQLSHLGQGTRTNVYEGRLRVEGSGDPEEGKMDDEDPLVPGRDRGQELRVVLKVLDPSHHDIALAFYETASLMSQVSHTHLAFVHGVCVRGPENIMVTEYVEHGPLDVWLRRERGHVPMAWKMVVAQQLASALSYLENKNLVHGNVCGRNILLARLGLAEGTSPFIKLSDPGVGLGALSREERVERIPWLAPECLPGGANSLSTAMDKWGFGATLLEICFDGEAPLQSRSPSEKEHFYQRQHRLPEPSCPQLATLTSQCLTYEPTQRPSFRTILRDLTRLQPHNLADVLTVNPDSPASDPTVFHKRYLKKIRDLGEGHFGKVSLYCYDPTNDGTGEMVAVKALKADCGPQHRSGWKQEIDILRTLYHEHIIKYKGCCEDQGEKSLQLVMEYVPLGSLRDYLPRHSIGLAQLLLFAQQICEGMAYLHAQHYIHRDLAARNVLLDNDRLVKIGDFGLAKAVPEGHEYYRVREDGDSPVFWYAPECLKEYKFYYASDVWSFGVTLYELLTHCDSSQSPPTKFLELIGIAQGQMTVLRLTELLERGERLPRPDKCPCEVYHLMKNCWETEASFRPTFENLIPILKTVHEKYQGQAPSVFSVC
T2 sequence (O60674 whole entry): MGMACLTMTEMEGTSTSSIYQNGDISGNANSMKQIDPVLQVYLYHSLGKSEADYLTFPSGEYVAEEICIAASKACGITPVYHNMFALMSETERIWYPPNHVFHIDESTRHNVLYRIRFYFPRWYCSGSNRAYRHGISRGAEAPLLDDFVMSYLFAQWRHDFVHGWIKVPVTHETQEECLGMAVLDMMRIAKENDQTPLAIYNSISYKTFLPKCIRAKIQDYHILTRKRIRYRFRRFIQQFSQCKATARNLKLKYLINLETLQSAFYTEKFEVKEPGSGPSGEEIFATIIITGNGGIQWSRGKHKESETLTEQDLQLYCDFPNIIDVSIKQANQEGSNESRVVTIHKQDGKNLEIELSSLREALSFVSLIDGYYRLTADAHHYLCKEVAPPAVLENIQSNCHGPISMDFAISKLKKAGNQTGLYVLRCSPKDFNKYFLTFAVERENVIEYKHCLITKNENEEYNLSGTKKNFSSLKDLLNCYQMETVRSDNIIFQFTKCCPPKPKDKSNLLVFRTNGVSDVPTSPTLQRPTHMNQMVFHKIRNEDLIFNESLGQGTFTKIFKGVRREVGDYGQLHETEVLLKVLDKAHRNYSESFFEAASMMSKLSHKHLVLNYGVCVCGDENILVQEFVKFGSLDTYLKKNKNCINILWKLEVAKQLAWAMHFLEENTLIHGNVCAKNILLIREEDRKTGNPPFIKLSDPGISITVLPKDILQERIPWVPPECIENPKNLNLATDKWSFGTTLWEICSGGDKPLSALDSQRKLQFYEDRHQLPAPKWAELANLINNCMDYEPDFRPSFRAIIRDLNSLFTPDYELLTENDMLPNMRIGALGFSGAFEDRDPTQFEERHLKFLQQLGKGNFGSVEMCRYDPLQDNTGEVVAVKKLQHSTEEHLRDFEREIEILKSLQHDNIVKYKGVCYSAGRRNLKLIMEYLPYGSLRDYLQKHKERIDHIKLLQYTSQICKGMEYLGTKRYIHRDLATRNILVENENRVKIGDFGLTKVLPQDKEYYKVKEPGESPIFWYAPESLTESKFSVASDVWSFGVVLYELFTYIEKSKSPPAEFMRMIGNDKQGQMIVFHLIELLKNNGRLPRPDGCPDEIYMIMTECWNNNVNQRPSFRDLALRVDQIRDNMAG
T1 sequence (P23458 whole entry): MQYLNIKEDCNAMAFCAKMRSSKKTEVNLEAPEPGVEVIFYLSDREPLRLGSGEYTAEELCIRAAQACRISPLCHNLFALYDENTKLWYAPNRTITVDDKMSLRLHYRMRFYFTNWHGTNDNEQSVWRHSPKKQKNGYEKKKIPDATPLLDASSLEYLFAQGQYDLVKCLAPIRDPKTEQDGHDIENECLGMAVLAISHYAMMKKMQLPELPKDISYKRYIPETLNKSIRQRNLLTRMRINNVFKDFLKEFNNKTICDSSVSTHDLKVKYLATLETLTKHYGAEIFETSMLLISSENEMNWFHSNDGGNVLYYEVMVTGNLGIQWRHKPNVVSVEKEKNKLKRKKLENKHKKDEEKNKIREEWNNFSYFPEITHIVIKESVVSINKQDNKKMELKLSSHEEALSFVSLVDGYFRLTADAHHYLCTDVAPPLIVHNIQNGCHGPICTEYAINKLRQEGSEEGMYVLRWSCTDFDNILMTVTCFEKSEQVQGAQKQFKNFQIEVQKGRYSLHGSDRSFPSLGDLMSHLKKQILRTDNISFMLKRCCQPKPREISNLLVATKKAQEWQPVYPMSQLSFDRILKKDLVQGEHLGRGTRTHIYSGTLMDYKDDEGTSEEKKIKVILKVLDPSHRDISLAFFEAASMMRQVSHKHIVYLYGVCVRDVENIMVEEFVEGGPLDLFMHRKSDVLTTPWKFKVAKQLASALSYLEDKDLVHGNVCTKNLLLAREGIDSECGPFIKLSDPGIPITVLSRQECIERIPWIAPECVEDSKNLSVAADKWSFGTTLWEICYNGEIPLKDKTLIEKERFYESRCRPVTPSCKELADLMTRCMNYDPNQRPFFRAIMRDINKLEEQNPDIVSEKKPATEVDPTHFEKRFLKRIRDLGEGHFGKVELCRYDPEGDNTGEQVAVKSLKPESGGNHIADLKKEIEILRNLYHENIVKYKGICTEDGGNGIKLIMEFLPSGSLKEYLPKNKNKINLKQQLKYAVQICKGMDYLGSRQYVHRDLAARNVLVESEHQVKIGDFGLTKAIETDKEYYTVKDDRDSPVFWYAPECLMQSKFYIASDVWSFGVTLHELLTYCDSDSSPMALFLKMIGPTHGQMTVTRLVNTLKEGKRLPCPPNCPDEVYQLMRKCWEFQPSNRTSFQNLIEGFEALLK

pIC50 (JAK1): ≥ 8.00
pIC50 (JAK2): ≥ 8.00
pIC50 (Tyk-2): ≥ 8.00
pIC50 [1]: 6.00 to 7.00
pIC50 [2]: 6.00 to 7.00
SMILES: Cc1nnc(-c2cnc3[nH]ccc3c2N[C@H]2C[C@@H](NS(=O)(=O)c3cccc(C#N)c3)C2)s1 [Example 75, 3-cyano-N-((1s,3s)-3-((5-(5-methyl-1,3,4-thiadiazol-2-yl)-1H-pyrrolo[2,3-b]pyridin-4-yl)amino)cyclobutyl)benzenesulfonamide]
